Laboratory results from publication PMC9925730, “Controlled sequential in situ self-assembly and disassembly of a fluorogenic cisplatin prodrug for cancer theranostics” (Nature Communications, 2023).
Where “and” joins values, the source holds several entries; their conditions need not be identical. Equal values may be shown once.

How the values were obtained:
[1] = biological target: T1, ALP (Bos taurus, UniProt P19111); assay: Dephosphorylated efficacy of P-CyPt towards varying concentrations of ALP (NIR fluorescence); type: biochemical
T1 construct: Alkaline phosphatase from bovine; purchased Sigma-Aldrich; host or cells: bovine intestinal mucosa (tissue-derived)
T1 sequence (P19111 20-533): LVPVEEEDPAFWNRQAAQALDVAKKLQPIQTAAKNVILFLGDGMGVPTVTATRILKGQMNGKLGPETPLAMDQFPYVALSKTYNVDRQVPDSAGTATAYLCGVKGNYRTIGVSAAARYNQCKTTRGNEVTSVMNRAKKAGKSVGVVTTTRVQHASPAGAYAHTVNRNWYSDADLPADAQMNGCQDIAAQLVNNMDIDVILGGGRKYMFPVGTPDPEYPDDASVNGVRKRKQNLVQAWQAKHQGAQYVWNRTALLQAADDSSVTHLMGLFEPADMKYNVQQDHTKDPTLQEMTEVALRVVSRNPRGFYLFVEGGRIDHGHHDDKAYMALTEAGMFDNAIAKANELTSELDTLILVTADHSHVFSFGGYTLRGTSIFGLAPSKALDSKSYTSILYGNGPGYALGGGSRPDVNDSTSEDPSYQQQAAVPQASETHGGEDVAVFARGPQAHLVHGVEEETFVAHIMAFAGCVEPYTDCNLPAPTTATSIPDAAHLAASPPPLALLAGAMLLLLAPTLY

[2] = test system: ALP; assay: as above; type: biochemical; settings: ALP 0 U/L; 0 min; mean of 3 samples

SMILES: CC1(C)C(/C=C/C2=C3Oc4cc(OP(=O)(O)O)c(Cl)cc4C=C3CCC2)=[N+](CCCNC(=O)[C@@H](Cc2ccccc2)NC(=O)[C@@H](Cc2ccccc2)NC(=O)CCC(=O)[O][Pt]([NH2])([NH2])([OH])([Cl])[Cl])c2ccccc21 [P-CyPt]
- Normalized FL intensity ([1]; ALP 5 U/L, 10 min, mean of 3 samples): 1.71
- Normalized FL intensity ([1]; ALP 5 U/L, 10 min, single samples): 1.648 and 1.73 and 1.752
- Normalized FL intensity ([1]; ALP 5 U/L, 12 min, mean of 3 samples): 1.864
- Normalized FL intensity ([1]; ALP 5 U/L, 12 min, single samples): 1.757 and 1.865 and 1.97
- Normalized FL intensity ([1]; ALP 5 U/L, 14 min, mean of 3 samples): 1.881
- Normalized FL intensity ([1]; ALP 5 U/L, 14 min, single samples): 1.813 and 1.9087 and 1.922
- Normalized FL intensity ([1]; ALP 10 U/L, 10 min, mean of 3 samples): 2.116
- Normalized FL intensity ([1]; ALP 10 U/L, 10 min, single samples): 2.078 and 2.183 and 2.087
- Normalized FL intensity ([1]; ALP 10 U/L, 12 min, mean of 3 samples): 2.286
- Normalized FL intensity ([1]; ALP 10 U/L, 12 min, single samples): 2.204 and 2.296 and 2.357
- Normalized FL intensity ([1]; ALP 10 U/L, 14 min, mean of 3 samples): 2.562
- Normalized FL intensity ([1]; ALP 10 U/L, 14 min, single samples): 2.47 and 2.6 and 2.617
- Normalized FL intensity ([1]; ALP 10 U/L, 16 min, mean of 3 samples): 2.829
- Normalized FL intensity ([1]; ALP 10 U/L, 16 min, single samples): 2.713 and 2.865 and 2.9087
- Normalized FL intensity ([1]; ALP 20 U/L, 10 min, mean of 3 samples): 2.617
- Normalized FL intensity ([1]; ALP 20 U/L, 10 min, single samples): 2.53 and 2.596 and 2.726
- Normalized FL intensity ([1]; ALP 20 U/L, 12 min, mean of 3 samples): 2.996
- Normalized FL intensity ([1]; ALP 20 U/L, 12 min, single samples): 2.926 and 2.987 and 3.074
- Normalized FL intensity ([1]; ALP 20 U/L, 14 min, mean of 3 samples): 3.404
- Normalized FL intensity ([1]; ALP 20 U/L, 14 min, single samples): 3.322 and 3.383 and 3.5087
- Normalized FL intensity ([1]; ALP 20 U/L, 16 min, mean of 3 samples): 3.783
- Normalized FL intensity ([1]; ALP 20 U/L, 16 min, single samples): 3.7 and 3.73 and 3.917
- Normalized FL intensity ([1]; ALP 50 U/L, 10 min, mean of 3 samples): 3.187
- Normalized FL intensity ([1]; ALP 50 U/L, 10 min, single samples): 3.135 and 3.157 and 3.27
- Normalized FL intensity ([1]; ALP 50 U/L, 12 min, mean of 3 samples): 3.6029
- Normalized FL intensity ([1]; ALP 50 U/L, 12 min, single samples): 3.483 and 3.583 and 3.743
- Normalized FL intensity ([1]; ALP 50 U/L, 14 min, mean of 3 samples): 4.096
- Normalized FL intensity ([1]; ALP 50 U/L, 14 min, single samples): 3.9913 and 4.022 and 4.274
- Normalized FL intensity ([1]; ALP 50 U/L, 16 min, mean of 3 samples): 4.5913
- Normalized FL intensity ([1]; ALP 50 U/L, 16 min, single samples): 4.43 and 4.465 and 4.878
- Normalized FL intensity ([1]; ALP 100 U/L, 10 min, mean of 3 samples): 4.5971
- Normalized FL intensity ([1]; ALP 100 U/L, 10 min, single samples): 4.522 and 4.557 and 4.713
- Normalized FL intensity ([1]; ALP 100 U/L, 12 min, mean of 3 samples): 5.171
- Normalized FL intensity ([1]; ALP 100 U/L, 12 min, single samples): 4.861 and 5.296 and 5.357
- Normalized FL intensity ([1]; ALP 100 U/L, 14 min, mean of 3 samples): 5.964
- Normalized FL intensity ([1]; ALP 100 U/L, 14 min, single samples): 5.887 and 5.948 and 6.057
- Normalized FL intensity ([1]; ALP 100 U/L, 16 min, mean of 3 samples): 6.53
- Normalized FL intensity ([1]; ALP 100 U/L, 16 min, single samples): 6.426 and 6.513 and 6.652
- Normalized FL intensity ([1]; ALP 200 U/L, 10 min, mean of 3 samples): 5.588
- Normalized FL intensity ([1]; ALP 200 U/L, 10 min, single samples): 5.343 and 5.613 and 5.8087
- Normalized FL intensity ([1]; ALP 200 U/L, 12 min, mean of 3 samples): 6.483
- Normalized FL intensity ([1]; ALP 200 U/L, 12 min, single samples): 6.217 and 6.557 and 6.674
- Normalized FL intensity ([1]; ALP 200 U/L, 14 min, mean of 3 samples): 6.862
- Normalized FL intensity ([1]; ALP 200 U/L, 14 min, single samples): 6.857 and 6.626 and 7.104
- Normalized FL intensity ([1]; ALP 500 U/L, 10 min, mean of 3 samples): 6.133
- Normalized FL intensity ([1]; ALP 500 U/L, 10 min, single samples): 5.804 and 6.287 and 6.3087
- Normalized FL intensity ([1]; ALP 500 U/L, 12 min, mean of 3 samples): 6.81
- Normalized FL intensity ([1]; ALP 500 U/L, 12 min, single samples): 6.661 and 6.722 and 7.048
- Normalized FL intensity ([1]; ALP 500 U/L, 14 min, mean of 3 samples): 7.207
- Normalized FL intensity ([1]; ALP 500 U/L, 14 min, single samples): 6.848 and 7.161 and 7.613
- Normalized FL intensity [2]: 1.022
